Laboratory results from US10144730B2, “Inhibitors of c-Jun-N-terminal kinase (JNK)” (Dana-Farber Cancer Institute, Inc., priority 2011, dated 2018).

Tests used:
[1] = tested on: phosphorylation of RSK; assay: High-throughput microscopy, phosphorylation of RSK; format: cell-based; conditions: Homo sapiens, A-375, A375 cells, anisomycin stimulation, read-out: Cellular EC50 pRSK
Description: (§1) A375 cells were stimulated with anisomycin (FIGS. 14A and 14C to 14F), IGF-1 (FIG. 14B), IL-6 (FIG. 14G), and TNF-α (FIG. 14H) for sixty minutes. The output of multiple signaling pathways was measured using high throughput microscopy at multiple concentrations of four JNK inhibitors and a control compound specific to each pathway DMSO (FIG. 14A), MK2206 (allosteric Akt inhibitor, Haoyuan Chemexpress Co., Limited. Hirai, et al., 2010) (FIG. 14B), PD0325901 (allosteric Mek inhibitor, Haoyuan Chemexpress Co., Limited. Barrett, et al., 2008) (FIGS. 14C and 14D), SB239063 (ATP-competitive p38 inhibitor, Haoyuan Chemexpress Co., Limited. Underwood et al., 2000) (FIGS. 14E and 14F), KIN001-040 (ATP-competitive JAK1,2,3 inhibitor, Haoyuan Chemexpress Co., Limited. Thompson et al., 2002) (FIG. 14G), and KIN001-208 (IKK inhibitor VIII, Haoyuan Chemexpress Co., Limited., Murata, et al., 2004) (FIG. 14H).
(§2) Cells were plated at 7500 cells/well in 96-well microscopy plates (Corning) in recommended media for 24 hours, and then starved in media lacking serum for 16 hours. Cells were pre-treated for 180 minutes with 10-fold stock solutions of JNK inhibitors and for 10 min with control compounds MK2206, PD0325901, SB239063, KIN040, and KIN208 and treated with 10-fold stock solutions of IGF-1, IL-6, TNF-α (all PeproTech), or anisomycin for 60 minutes. Cells were fixed in 2% paraformaldehyde for 10 min at room temperature and washed with PBS-T (Phosphate Buffered Saline, 0.1% Tween 20). Cells were permeabilized in methanol for 10 min at room temperature, washed with PBS-T, and blocked in Odyssey Blocking Buffer (LI-COR Biosciences) for 1 hour at room temperature. Cells were incubated overnight at 4° C. with antibody specific for Erk1/2(pT202/pY204), Akt(pS473), c-Jun(pS73), pP38(T180/Y182) and pSTAT3(Y705) (Cell Signaling Technology), pRSK1(S380) and pMSK1(S376) (Epitomics), and NF-κB (Santa Cruz Biotechnology) diluted 1:400 in Odyssey Blocking Buffer. Cells were washed three times in PBS-T and incubated with rabbit-specific secondary antibody labeled with Alexa Fluor 647 (Invitrogen) diluted 1:2000 in Odyssey Blocking Buffer. Cells were washed once in PBS-T and once in PBS and incubated in 250 ng/ml Hoechst 33342 (Invitrogen) and 1:1000 Whole Cell Stain (blue; Thermo Scientific) solution. Cells were washed twice with PBS and imaged in an imageWoRx high-throughput microscope (Applied Precision). Data were plotted using DataPflex. […]

[2] = tested on: phosphorylation of Msk1; assay: High-throughput microscopy, phosphorylation of Msk1; format: cell-based; conditions: Homo sapiens, A-375, A375 cells, anisomycin stimulation, read-out: Cellular EC50 pMSK1
Description: A375 cells were stimulated with anisomycin (FIGS. 14A and 14C to 14F), IGF-1 (FIG. 14B), IL-6 (FIG. 14G), and TNF-α (FIG. 14H) for sixty minutes.
Cells were fixed in 2% paraformaldehyde for 10 min at room temperature and washed with PBS-T (Phosphate Buffered Saline, 0.1% Tween 20). Cells were permeabilized in methanol for 10 min at room temperature, washed with PBS-T, and blocked in Odyssey Blocking Buffer (LI-COR Biosciences) for 1 hour at room temperature. Cells were incubated overnight at 4° C. with antibody specific for Erk1/2(pT202/pY204), Akt(pS473), c-Jun(pS73), pP38(T180/Y182) and pSTAT3(Y705) (Cell Signaling Technology), pRSK1(S380) and pMSK1(S376) (Epitomics), and NF-κB (Santa Cruz Biotechnology) diluted 1:400 in Odyssey Blocking Buffer. […] Cells were washed twice with PBS and imaged in an imageWoRx high-throughput microscope (Applied Precision). Data were plotted using DataPflex.

[3] = tested on: phosphorylation of STAT3; assay: High-throughput microscopy, phosphorylation of STAT3; format: cell-based; conditions: Homo sapiens, A-375, A375 cells, IL-6 stimulation, read-out: Cellular EC50 pSTAT3
Description: as §1, §2

[4] = target: additional kinase targets; assay: Follow-up enzymatic IC50 or Kd on potential additional kinase targets; conditions: further biochemical and binding assays
From the text: Scores were obtained from the profiling against a […] using Kinome Scan™ technology as illustrated in FIG. 11.
To complement the KiNativ profiling, the in vitro kinase selectivity of several key compounds was comprehensively evaluated by two complementary approaches: a kinase-binding assays against a panel of 442 distinct kinases using the KINOMEscan methodology (DiscoverX) and a standard radioactivity-based enzymatic assays against a panel of 124 kinases (The National Centre for Protein Kinase Profiling in Dundee). […] It was attempted to confirm all these potent binding targets using either an enzymatic kinase assay or through the measurement of a dissociation constant to the kinase in question.

[5] = target: JNK1 (Homo sapiens, UniProt P45983); assay: Biochemical JNK1 kinase inhibition (Z'-lyte format); conditions: Table 2
Sequence of JNK1 (P45983 whole entry): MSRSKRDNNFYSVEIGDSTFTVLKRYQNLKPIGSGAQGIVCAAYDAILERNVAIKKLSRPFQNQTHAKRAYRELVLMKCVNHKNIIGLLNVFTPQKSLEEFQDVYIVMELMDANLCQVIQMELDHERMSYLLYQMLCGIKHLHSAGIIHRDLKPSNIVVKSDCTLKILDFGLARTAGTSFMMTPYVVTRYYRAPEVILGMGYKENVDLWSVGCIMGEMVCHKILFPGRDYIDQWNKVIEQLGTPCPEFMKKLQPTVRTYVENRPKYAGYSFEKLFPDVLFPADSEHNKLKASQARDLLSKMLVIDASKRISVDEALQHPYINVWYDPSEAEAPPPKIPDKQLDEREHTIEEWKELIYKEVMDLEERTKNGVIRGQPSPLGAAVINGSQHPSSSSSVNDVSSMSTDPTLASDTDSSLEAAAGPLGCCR

[6] = target: JNK3 (Homo sapiens, UniProt P53779); assay: Biochemical JNK3 kinase inhibition (Z'-lyte format); conditions: Table 2
Sequence of JNK3 (P53779 whole entry): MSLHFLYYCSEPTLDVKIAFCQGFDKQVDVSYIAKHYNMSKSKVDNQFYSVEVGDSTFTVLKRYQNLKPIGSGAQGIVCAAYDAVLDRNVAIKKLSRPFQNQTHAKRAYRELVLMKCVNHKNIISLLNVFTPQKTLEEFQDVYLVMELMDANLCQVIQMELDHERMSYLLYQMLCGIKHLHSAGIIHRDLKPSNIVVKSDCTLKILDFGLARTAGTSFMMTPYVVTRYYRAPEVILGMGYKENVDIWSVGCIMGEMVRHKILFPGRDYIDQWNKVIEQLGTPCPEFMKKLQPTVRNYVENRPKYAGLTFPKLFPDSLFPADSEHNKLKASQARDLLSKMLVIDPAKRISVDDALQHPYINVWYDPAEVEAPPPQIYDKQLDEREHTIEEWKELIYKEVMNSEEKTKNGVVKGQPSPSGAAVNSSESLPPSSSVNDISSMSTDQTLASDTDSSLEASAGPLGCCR

[7] = target: IRAK1 (Homo sapiens, UniProt P51617); assay: IRAK1 biochemical kinase assay; conditions: biochemical / follow-up enzymatic assay; read-out: IC50 against IRAK1
Sequence of IRAK1 (P51617 whole entry): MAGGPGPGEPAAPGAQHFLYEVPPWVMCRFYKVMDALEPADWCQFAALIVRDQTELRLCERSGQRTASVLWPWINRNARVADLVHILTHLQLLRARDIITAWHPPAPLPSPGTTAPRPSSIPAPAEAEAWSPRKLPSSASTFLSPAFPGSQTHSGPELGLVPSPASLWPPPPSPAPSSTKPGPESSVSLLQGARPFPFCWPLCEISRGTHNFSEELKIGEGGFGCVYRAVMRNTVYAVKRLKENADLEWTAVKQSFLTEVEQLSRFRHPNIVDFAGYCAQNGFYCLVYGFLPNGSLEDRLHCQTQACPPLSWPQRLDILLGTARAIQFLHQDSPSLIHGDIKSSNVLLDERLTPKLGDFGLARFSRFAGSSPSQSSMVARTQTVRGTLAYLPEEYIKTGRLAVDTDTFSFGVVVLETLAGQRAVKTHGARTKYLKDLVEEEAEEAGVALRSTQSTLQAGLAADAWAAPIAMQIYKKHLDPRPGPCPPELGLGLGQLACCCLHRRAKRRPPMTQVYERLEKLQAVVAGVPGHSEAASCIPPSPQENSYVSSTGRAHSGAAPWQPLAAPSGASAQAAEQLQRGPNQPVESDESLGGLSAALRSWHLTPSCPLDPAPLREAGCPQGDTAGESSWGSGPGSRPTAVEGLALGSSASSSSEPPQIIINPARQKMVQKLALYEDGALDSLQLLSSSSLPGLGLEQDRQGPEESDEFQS

[8] = target: AKT2 (Homo sapiens, UniProt P31751); assay: AKT2 follow-up enzymatic assay; format: biochemical; conditions: follow-up enzymatic assay (FIG. 12)
Sequence of AKT2 (P31751 whole entry, species assumed): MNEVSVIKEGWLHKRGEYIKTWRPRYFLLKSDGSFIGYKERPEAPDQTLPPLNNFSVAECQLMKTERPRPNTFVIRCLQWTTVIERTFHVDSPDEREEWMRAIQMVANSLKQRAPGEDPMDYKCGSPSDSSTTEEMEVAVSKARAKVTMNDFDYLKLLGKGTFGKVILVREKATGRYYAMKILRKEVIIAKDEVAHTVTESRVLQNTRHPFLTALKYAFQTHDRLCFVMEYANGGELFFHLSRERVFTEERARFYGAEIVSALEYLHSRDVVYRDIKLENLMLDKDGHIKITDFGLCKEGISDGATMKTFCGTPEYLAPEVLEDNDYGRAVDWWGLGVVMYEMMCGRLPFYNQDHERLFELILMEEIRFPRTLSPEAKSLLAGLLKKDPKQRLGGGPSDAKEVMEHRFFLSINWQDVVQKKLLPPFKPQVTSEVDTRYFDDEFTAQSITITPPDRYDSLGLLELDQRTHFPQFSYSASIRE
From the text: This high in vitro selectivity however differed markedly from the large number of targets detected by KiNativ.

Compound | EC50 [1] [nM] | EC50 [2] [nM] | EC50 [3] [nM] | IC50 or Kd of any further target [4] [nM] | IC50 [5] [nM] | IC50 [6] [nM] | IC50 [7] [nM] | IC50 [8] [nM]
Cc1cc(NC(=O)c2cccc(NC(=O)/C=C/CN(C)C)c2)ccc1Nc1nccc(-c2cccnc2)n1 [JNK-IN-8] | > 10000 | > 10000 | > 10000 | ≥ 1000 |  |  |  | 
CN(C)C/C=C/C(=O)Nc1cccc(C(=O)Nc2ccc(Nc3nccc(/C(C#N)=C4\Nc5ccccc5S4)n3)cc2)c1 [JNK-IN-12] | > 10000 | > 10000 | > 10000 |  | 13 | 11 | 37.6 | 89.9
